Test results reported in ChEMBL document CHEMBL1201862, “PubChem BioAssay data set” (2004).
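Test compounds were applied to cells in 96-well plates for 48 hours at 5 doses. GI50 = concentration required for 50% inhibition of growth.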 Active and inactive are the calls of the source. No stated cut-off is given here; in the data, active = GI50 up to about 1.1 µM and inactive = higher.

Key:
Assay in all cases: DTP human tumour cell line panel, 48 h
[1] = tested on: IGROV-1
[2] = tested on: MOLT-4
[3] = tested on: CAKI-1
[4] = tested on: K562
[5] = tested on: NCI/ADR-RES
[6] = tested on: SK-MEL-5
[7] = tested on: SF-295
[8] = tested on: SK-MEL-28
[9] = tested on: NCI-H522
[10] = tested on: TK-10
[11] = tested on: HL-60
[12] = tested on: HCC 2998
[13] = tested on: MDA-MB-231
[14] = tested on: Malme-3M
[15] = tested on: SK-MEL-2
[16] = tested on: Hs-578T
[17] = tested on: HCT-116
[18] = tested on: SN12C
[19] = tested on: DU-145
[20] = tested on: BT-549
[21] = tested on: OVCAR-4
[22] = tested on: U-251
[23] = tested on: A498
[24] = tested on: SF-539
[25] = tested on: 786-0
[26] = tested on: SW-620
[27] = tested on: UO-31
[28] = tested on: NCI-H23
[29] = tested on: NCI-H460
[30] = tested on: SR
[31] = tested on: MDA-MB-435
[32] = tested on: MDA-N
[33] = tested on: A549
[34] = tested on: SNB-75
[35] = tested on: OVCAR-5
[36] = tested on: RPMI-8226
[37] = tested on: SF-268
[38] = tested on: M14
[39] = tested on: OVCAR-3
[40] = tested on: CCRF-CEM
[41] = tested on: MCF7
[42] = tested on: ACHN
[43] = tested on: KM12
[44] = tested on: HT-29
[45] = tested on: SNB-19
[46] = tested on: OVCAR-8
[47] = tested on: LOX IMVI
[48] = tested on: COLO 205
[49] = tested on: SK-OV-3
[50] = tested on: HOP-62
[51] = tested on: EKVX
[52] = tested on: NCI-H226
[53] = tested on: HCT-15
[54] = tested on: UACC-62
[55] = tested on: UACC-257
[56] = tested on: PC-3
[57] = tested on: T47D
[58] = tested on: HOP-92
[59] = tested on: RXF 393

## COC(=O)C1Cc2cc3c(cc2C1=O)CCC3 (stereo not given)
[1]
  GI50: > 100 µM (inactive)
[2]
  GI50: 68.7 µM (inactive)
[3]
  GI50: > 100 µM (inactive)
[4]
  GI50: 43 µM (inactive)
[5]
  GI50: > 100 µM (inactive)
[6]
  GI50: > 100 µM (inactive)
[7]
  GI50: > 100 µM (inactive)
[8]
  GI50: > 100 µM (inactive)
[9]
  GI50: > 100 µM (inactive)
[10]
  GI50: > 100 µM (inactive)
[11]
  GI50: > 100 µM (inactive)
[12]
  GI50: > 100 µM (inactive)
[13]
  GI50: > 100 µM (inactive)
[14]
  GI50: > 100 µM (inactive)
[15]
  GI50: > 100 µM (inactive)
[16]
  GI50: > 100 µM (inactive)
[17]
  GI50: > 100 µM (inactive)
[18]
  GI50: 90.6 µM (inactive)
[19]
  GI50: > 100 µM (inactive)
[20]
  GI50: > 100 µM (inactive)
[21]
  GI50: 42.1 µM (inactive)
[22]
  GI50: > 100 µM (inactive)
[23]
  GI50: > 100 µM (inactive)
[24]
  GI50: > 100 µM (inactive)
[25]
  GI50: > 100 µM (inactive)
[26]
  GI50: > 100 µM (inactive)
[27]
  GI50: > 100 µM (inactive)
[28]
  GI50: > 100 µM (inactive)
[29]
  GI50: > 100 µM (inactive)
[30]
  GI50: > 100 µM (inactive)
[31]
  GI50: > 100 µM (inactive)
[32]
  GI50: > 100 µM (inactive)
[33]
  GI50: > 100 µM (inactive)
[34]
  GI50: > 100 µM (inactive)
[35]
  GI50: > 100 µM (inactive)
[36]
  GI50: > 100 µM (inactive)
[37]
  GI50: > 100 µM (inactive)
[38]
  GI50: > 100 µM (inactive)
[39]
  GI50: > 100 µM (inactive)
[40]
  GI50: 92.7 µM (inactive)
[41]
  GI50: > 100 µM (inactive)
[42]
  GI50: > 100 µM (inactive)
[43]
  GI50: > 100 µM (inactive)
[44]
  GI50: > 100 µM (inactive)
[45]
  GI50: > 100 µM (inactive)
[46]
  GI50: > 100 µM (inactive)
[47]
  GI50: > 100 µM (inactive)
[48]
  GI50: > 100 µM (inactive)
[49]
  GI50: > 100 µM (inactive)
[50]
  GI50: > 100 µM (inactive)
[51]
  GI50: > 100 µM (inactive)
[52]
  GI50: > 100 µM (inactive)
[53]
  GI50: > 100 µM
[54]
  GI50: > 100 µM (inactive)
[55]
  GI50: > 100 µM (inactive)
[56]
  GI50: > 100 µM (inactive)
[57]
  GI50: > 100 µM (inactive)

## COC(=O)C1=C(C)NC(C)=C(C(=O)OC)C1c1cccc(/[N+]([O-])=C/c2ccccc2)c1
[1]
  GI50: 74.3 µM (inactive)
[2]
  GI50: 23.2 µM (inactive)
[3]
  GI50: 18.1 µM (inactive)
[4]
  GI50: > 10 µM (inactive)
[5]
  GI50: 23.2 µM (inactive)
[6]
  GI50: > 100 µM (inactive)
[7]
  GI50: > 100 µM (inactive)
[8]
  GI50: 17.5 µM (inactive)
[9]
  GI50: 16.4 µM (inactive)
[10]
  GI50: 38.9 µM (inactive)
[11]
  GI50: 15.3 µM (inactive)
[12]
  GI50: > 100 µM (inactive)
[13]
  GI50: 17.5 µM (inactive)
[14]
  GI50: 16.3 µM (inactive)
[15]
  GI50: 75 µM (inactive)
[16]
  GI50: 42.1 µM (inactive)
[17]
  GI50: 16.7 µM (inactive)
[18]
  GI50: > 10 µM (inactive)
[19]
  GI50: 78 µM (inactive)
[20]
  GI50: 16.3 µM (inactive)
[21]
  GI50: 16.5 µM (inactive)
[22]
  GI50: > 100 µM (inactive)
[24]
  GI50: > 100 µM (inactive)
[25]
  GI50: 17.7 µM (inactive)
[26]
  GI50: 21.3 µM (inactive)
[27]
  GI50: 34.2 µM (inactive)
[28]
  GI50: 33.3 µM (inactive)
[29]
  GI50: 97.9 µM (inactive)
[30]
  GI50: 21.8 µM (inactive)
[31]
  GI50: 19.7 µM (inactive)
[32]
  GI50: 17.6 µM (inactive)
[33]
  GI50: > 100 µM (inactive)
[34]
  GI50: 41.7 µM (inactive)
[35]
  GI50: > 100 µM (inactive)
[36]
  GI50: 24.4 µM (inactive)
[58]
  GI50: 23.4 µM (inactive)
[37]
  GI50: 69.5 µM (inactive)
[38]
  GI50: 18.6 µM (inactive)
[39]
  GI50: 17.4 µM (inactive)
[40]
  GI50: 11 µM (inactive)
[41]
  GI50: 17.8 µM (inactive)
[42]
  GI50: 17.1 µM (inactive)
[43]
  GI50: > 100 µM (inactive)
[44]
  GI50: 28.3 µM (inactive)
[45]
  GI50: > 100 µM (inactive)
[46]
  GI50: 17.5 µM (inactive)
[59]
  GI50: 16.4 µM (inactive)
[47]
  GI50: 33.7 µM (inactive)
[48]
  GI50: 16.8 µM (inactive)
[49]
  GI50: > 100 µM (inactive)
[50]
  GI50: > 100 µM (inactive)
[51]
  GI50: 72.8 µM (inactive)
[52]
  GI50: > 100 µM (inactive)
[53]
  GI50: 17.1 µM
[54]
  GI50: 28.5 µM (inactive)
[55]
  GI50: 19 µM (inactive)
[56]
  GI50: 46.7 µM (inactive)
[57]
  GI50: 17.3 µM (inactive)
